# Laboratory results published in PMC7144940, “Principles of RNA and nucleotide discrimination by the RNA processing enzyme RppH” (Nucleic Acids Research, 2020).
# “Also recorded” adds a separate entry of the source. Where two headings read alike, the source gives them in different places.
# T1: DapFm (E. coli DapF with Y268A and R36A mutations) (Escherichia coli, UniProt P0A6K1 1-274, Y268A | R36A)
# T1 construct: extra serine left at the N-terminus of all proteins by the ULP1 cleavage of the His10-SUMO tags; DapF (diaminopimelate epimerase), Escherichia coli, mutated variant of the full-length protein with Y268A and R36A; source: E. coli BL21(DE3), purified (HisTrap FF, tag cleavage by ULP1, Superdex 200); not shown: decahistidine, N-terminal, cleaved; SUMO, N-terminal, cleaved
# T1 sequence: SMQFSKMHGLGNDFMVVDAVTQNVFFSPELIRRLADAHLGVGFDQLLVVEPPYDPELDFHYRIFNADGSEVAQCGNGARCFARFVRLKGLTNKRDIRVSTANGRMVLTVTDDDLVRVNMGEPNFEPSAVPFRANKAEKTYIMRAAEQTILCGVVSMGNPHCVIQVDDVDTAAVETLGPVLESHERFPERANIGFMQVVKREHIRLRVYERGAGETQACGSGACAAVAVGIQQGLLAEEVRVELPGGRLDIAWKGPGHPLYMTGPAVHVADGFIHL
# Legend:
# Escherichia coli RppH [1] = biological target: T2, Escherichia coli RppH (Escherichia coli, UniProt P0A776); type: biochemical; design: 0.1 mM substrate and 1 μM full-length RppH in case of nucleotides; decahistidine (N, cleaved yes); SUMO (N, cleaved yes); made in house; host or cells: E. coli BL21(DE3); conditions: for hydrolysis by RppH (TLC): 1 mM substrate, 5 μM RppH, 37°C, 1 h
# Experimental: Reactions for thin layer chromatography (TLC) were performed with 1 mM nucleotide substrates and 5 μM of the full-length RppH, in a 10-μl solution containing 10 mM MgCl2 and 50 mM buffer with different pH. Buffers were: MES-NaOH, pH 6.0; Na-cacodylate-HCl, pH 6.5; MOPS-NaOH, pH 7.0; HEPES-NaOH, pH 7.5; Tris-HCl, pH 8.0, 8.5 and 9.0. Reactions were incubated at 37°C for 1 h and quenched with 5 μl of 150 mM ethylenediaminetetraacetic acid (EDTA). Samples were analyzed on PEI-cellulose plates (F-254, Selecto Scientific) in 0.3 M potassium phosphate buffer, pH 7.5, for adenosine triphosphate (ATP), adenosine diphosphate (ADP), GTP, GDP, pppAG (RNA), ppGpp and pppGpp, and pH 3.3 for CTP and CDP, UTP and UDP. RNAs were visualized by UV254 shadowing. The equimolar amount of wild-type E. coli DapF ([8]) was added to the reactions for testing RppH activity stimulation at pH 7.5. Inhibition of RppH activity was conducted using NaF (Sigma-Aldrich) at 1–10 mM. For TLC experiments, original colored images were converted to black-and-white images, and the levels of brightness were adjusted to enhance the contrast and better visualize reaction products.
# Target sequence in this assay (P0A776 whole entry): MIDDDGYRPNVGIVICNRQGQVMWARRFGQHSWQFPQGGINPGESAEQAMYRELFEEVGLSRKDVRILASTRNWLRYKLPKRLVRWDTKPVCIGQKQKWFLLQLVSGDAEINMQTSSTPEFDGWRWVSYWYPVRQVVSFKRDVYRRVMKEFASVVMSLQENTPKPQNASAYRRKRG
# Escherichia coli RppH [2] = biological target: T2, Escherichia coli RppH; type: biochemical; design: 0.1 mM substrate and 1 μM full-length RppH in case of nucleotides; decahistidine (N, cleaved yes); SUMO (N, cleaved yes); made in house; host or cells: E. coli BL21(DE3); conditions: for initial reaction rate of hydrolysis by RppH: nucleotide substrate 0.1 mM, 1 μM full-length RppH, pH 7.5, 10 mM MgCl2, 37°C, linear regression, n = 2, error is SE
# Experimental: (§1) RppH activity on pppAG and ppAG RNAs, NTPs, NDPs, and ppGpp was determined by kinetic analysis, as described in ref. ([6]). Each reaction mixture contained 0.1 mM substrate and 1 μM full-length RppH in case of nucleotides and 0.1 μM RppH in case of RNA, in a 50-μL solution containing 50 mM HEPES-NaOH, pH 7.5, 10 mM MgCl2 , 0.1% Triton X-100, at 37°C. Reactions were incubated for 0–20 min and quenched with 750 μl of 50 mM sodium acetate, pH 4.5. The quenched reaction samples were analyzed by anion-exchange chromatography on a 5 × 50 mm MonoQ column (GE Healthcare). The reaction products and remaining substrates were eluted with a 0–1.0 M NaCl gradient in 10 mM Tris-HCl, pH 7.5, detected at 260 nm, and the amount of each mono- or oligonucleotide was calculated by using the integration function in UNICORN software (GE Healthcare). The initial reaction rates were calculated based on the ratio between remaining substrate and reaction products using a linear fit model of GraphPad. Each assay was repeated at least twice.
# Target sequence in this assay (P0A776 whole entry): as above
# Escherichia coli RppH [3] = biological target: T2, Escherichia coli RppH; assay: Competition experiments: inhibition of RNA hydrolysis by nucleotides; type: biochemical; design: 0.1 mM substrate and 1 μM full-length RppH in case of nucleotides; decahistidine (N, cleaved yes); SUMO (N, cleaved yes); made in house; host or cells: E. coli BL21(DE3)
# Experimental: as §1
# Target sequence in this assay (P0A776 whole entry): as above
# Competition experiments were conducted using the same protocol as cleavage assays with the 0.1 mM substrate RNA concentration, the nucleotide concentration ranging between 0.1-5.0 mM, and 10 min incubation. The initial reaction rates were calculated based on the ratio between reaction products and remaining substrate using a linear fit model of GraphPad software. Because of peak overlap, inhibition of GTP hydrolysis was determined solely based on quantification of the reaction products. IC50 values were determined using an IC50 model of GraphPad.
# Escherichia coli RppH [4] = biological target: T2, Escherichia coli RppH; assay: Metal dependence of RppH reactivity (TLC); type: biochemical; design: RppHd (Δ161-176); Nterm-Ser0-Met1; decahistidine (N, cleaved yes); SUMO (N, cleaved yes); made in house; host or cells: E. coli BL21(DE3); conditions: 5 mM substrate, 5 μM RppHd
# Experimental: Reactions were performed with 5 mM GTP and 5 μM RppHd, in a 20-μL solution containing 10 mM divalent cation salt (MgCl2, MnCl2, NiCl2, or CaCl2) and 50 mM buffer with different pH (HEPES-Na, pH 7.5; Tris-HCl, pH 8.0, 8.5, 9.0). Reactions were incubated at 37 °C for 1 h and quenched with 10 μL 150 mM EDTA. Samples were analyzed on PEI-cellulose plates in 0.3 M potassium phosphate buffer, pH 7.5, at room temperature. RNAs were visualized by UV254 shadowing.
# Target sequence in this assay (P0A776 1-160): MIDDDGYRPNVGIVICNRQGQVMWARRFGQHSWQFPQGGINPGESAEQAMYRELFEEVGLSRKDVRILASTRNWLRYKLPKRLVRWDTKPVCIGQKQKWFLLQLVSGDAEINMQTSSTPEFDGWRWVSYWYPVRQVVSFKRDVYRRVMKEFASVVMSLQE
# [5] = biological target: T1, DapFm (E. coli DapF with Y268A and R36A …); assay: crystal structure; RppHt-DapFm complex formed by mixing DapFm and RppHt at a molar ratio of 1:1.2 (20 mM Tris-HCl pH 8.0, 500 mM NaCl, 1 mM DTT), purified on Superdex 200; crystals from 30% PEG400, 0.1 M CHES pH 9.2, 18°C; soaked with GTP, GDP or pppGpp with MgCl2 and NaF; conditions: both partners purified
# [6] = longer incubation, pH 7.5, 1 μM RppH
molecule,measurement,setting,value
"O=c1ccn([C@@H]2O[C@H](CO[P@@](=O)(O)O[P@@](=O)(O)OP(=O)(O)O)[C@@H](O)[C@H]2O)c(=O)[nH]1 (stereo in doubt) [UTP, uridine triphosphate]",hydrolysis by RppH (TLC),Escherichia coli RppH [1]; pH 8.5 and 9.0,majority
"Nc1ncnc2c1ncn2[C@@H]1O[C@H](COP(=O)(O)OP(=O)(O)O)[C@@H](O)[C@H]1O [ADP, adenosine diphosphate]",hydrolysis by RppH (TLC),Escherichia coli RppH [1]; pH 8.0,all
"Nc1ncnc2c1ncn2[C@@H]1O[C@H](COP(=O)(O)OP(=O)(O)OP(=O)(O)O)[C@@H](O)[C@H]1O [ATP, adenosine triphosphate]",undigested substrate remaining at plateau,Escherichia coli RppH [2]; [6],~70%
same,initial reaction rate of hydrolysis by RppH,Escherichia coli RppH [2],4.2 ± 0.24 µM/min
same,hydrolysis by RppH (TLC),Escherichia coli RppH [1]; pH 8.5 and 9.0,all
Nc1ccn([C@@H]2O[C@H](COP(=O)(O)OP(=O)(O)O)[C@@H](O)[C@H]2O)c(=O)n1 [CDP],hydrolysis by RppH (TLC),Escherichia coli RppH [1]; pH 8.0,almost all
"Nc1ccn([C@@H]2O[C@H](COP(=O)(O)OP(=O)(O)OP(=O)(O)O)[C@@H](O)[C@H]2O)c(=O)n1 [CTP, cytidine triphosphate]",hydrolysis by RppH (TLC),Escherichia coli RppH [1]; pH 8.5 and 9.0,majority
Nc1nc2c(ncn2[C@@H]2O[C@H](COP(=O)(O)OP(=O)(O)O)[C@@H](O)[C@H]2O)c(=O)[nH]1 [GDP],"conversion of substrate, without approaching a plateau",Escherichia coli RppH [2]; [6],~50%
same,initial reaction rate of hydrolysis by RppH,Escherichia coli RppH [2],3.4 ± 0.07 µM/min
same,IC50,"Escherichia coli RppH [3]; 0.1 mM ppAG RNA, nucleotide 0.1-5.0 mM, 10 mM Mg2+, pH 7.5, 10 min, n = 2, mean ± SE, GTP value estimated from a smooth curve, read-out: IC50, inhibition of RppH reactivity with ppAG RNA",~0.059 mM
same,IC50,"Escherichia coli RppH [3]; 0.1 mM pppAG RNA, nucleotide 0.1-5.0 mM, 10 mM Mg2+, pH 7.5, 10 min, n = 2, mean ± SE, read-out: IC50, inhibition of RppH reactivity with pppAG RNA",~0.032 mM
same,hydrolysis by RppH (TLC),Escherichia coli RppH [1]; pH 8.0,almost all
"Nc1nc2c(ncn2[C@@H]2O[C@H](COP(=O)(O)OP(=O)(O)OP(=O)(O)O)[C@@H](O)[C@H]2O)c(=O)[nH]1 [GTP, guanosine triphosphate]",undigested substrate remaining at plateau,Escherichia coli RppH [2]; [6],~70%
same,initial reaction rate of hydrolysis by RppH,Escherichia coli RppH [2],3.1 ± 0.13 µM/min
same,hydrolysis by RppH in the presence of Mg2+,"Escherichia coli RppH [4]; 10 mM MgCl2, pH 7.5-9.0, 1 h",support hydrolysis most; also recorded: most efficiently
same,hydrolysis by RppH in the presence of Mn2+,"Escherichia coli RppH [4]; 10 mM MnCl2, pH 7.5-9.0, 1 h",very low efficiency; also recorded: some activity
same,hydrolysis by RppH in the presence of Ni2+ or Ca2+,"Escherichia coli RppH [4]; 10 mM NiCl2 or CaCl2, pH 7.5-9.0, 1 h",do not support hydrolysis; also recorded: no activity
same,IC50,Escherichia coli RppH [3],~4.1 mM
same,IC50,"Escherichia coli RppH [3]; IC50, inhibition of RppH reactivity with pppAG RNA, 0.1 mM pppAG RNA, nucleotide 0.1-5.0 mM, 10 mM Mg2+, pH 7.5, 10 min, n = 2, mean ± SE",1.58 mM
same,IC50,"Escherichia coli RppH [3]; IC50, range over pppAG and ppAG RNA substrates, pppAG and ppAG RNA",1.6 to 4.1 mM
same,IC50,"Escherichia coli RppH [3]; concentration to achieve 2-fold inhibition of the reaction of RppH with ppAG, ppAG RNA",~4.1 mM
same,IC50,"Escherichia coli RppH [3]; concentration to achieve 2-fold inhibition of the reaction of RppH with pppAG, pppAG RNA",~1.6 mM
same,hydrolysis by RppH (TLC),Escherichia coli RppH [1]; pH 8.5 and 9.0,majority
O=c1ccn([C@@H]2O[C@H](COP(=O)(O)OP(=O)(O)O)[C@@H](O)[C@H]2O)c(=O)[nH]1 [UDP],hydrolysis by RppH (TLC),Escherichia coli RppH [1]; pH 8.0,almost all
F [fluoride],effect on E. coli RppH activity (TLC),"Escherichia coli RppH [1]; NaF 1-10 mM, GTP and GDP at pH 8.0, pppGpp and ppGpp at pH 7.5",Inhibition
Nc1nc2c(ncn2[C@@H]2O[C@H](COP(=O)(O)OP(=O)(O)O)[C@@H](OP(=O)(O)OP(=O)(O)O)[C@H]2O)c(=O)[nH]1 [ppGpp],initial reaction rate of hydrolysis by RppH,Escherichia coli RppH [2],1.20 ± 0.07 µM/min
same,times less reactive than GDP,"Escherichia coli RppH [2]; ratio of initial rates, pH 7.5",~2.8
same,hydrolysis by RppH (TLC),Escherichia coli RppH [1]; pH 7.0,slow hydrolysis
same,hydrolysis by RppH (TLC),Escherichia coli RppH [1]; pH 7.5,About half
same,hydrolysis by RppH (TLC),Escherichia coli RppH [1]; pH 8.0,most
Nc1nc2c(ncn2[C@@H]2O[C@H](COP(=O)(O)OP(=O)(O)OP(=O)(O)O)[C@@H](OP(=O)(O)OP(=O)(O)O)[C@H]2O)c(=O)[nH]1 [pppGpp],initial reaction rate of hydrolysis by RppH,Escherichia coli RppH [2],1.30 ± 0.10 µM/min
same,times less reactive than GTP,"Escherichia coli RppH [2]; ratio of initial rates, pH 7.5",~2.4
same,hydrolysis by RppH (TLC),Escherichia coli RppH [1]; pH 7.5,very slow hydrolysis
same,hydrolysis by RppH (TLC),Escherichia coli RppH [1]; pH 8.0,moderate hydrolysis
"RppHt (E. coli RppH, Δ161-176 and Q159A/E160A) (enzyme, Escherichia coli, extra serine (Ser0) left at the N-terminus by the ULP1 cleavage of the His10-SUMO tags; RNA pyrophosphohydrolase RppH, Escherichia coli, C-terminally truncated variant Δ161-176 (Met1 to residue 160) with Q159A/E160A; printed as Nterm-Ser0-Met1…Ala159-Ala160-Cterm; source: E. coli BL21(DE3), purified (HisTrap FF, tag cleavage by ULP1, HiTrap SP, Superdex 75); not shown: decahistidine, N-terminal, …) SMIDDDGYRPNVGIVICNRQGQVMWARRFGQHSWQFPQGGINPGESAEQAMYRELFEEVGLSRKDVRILASTRNWLRYKLPKRLVRWDTKPVCIGQKQKWFLLQLVSGDAEINMQTSSTPEFDGWRWVSYWYPVRQVVSFKRDVYRRVMKEFASVVMSLAA",binding result,[5],binds
